{
  "source": "paper PMC3896228",
  "about": "“Physalin H from Solanum nigrum as an Hh signaling inhibitor blocks GLI1–DNA-complex formation” (Beilstein Journal of Organic Chemistry, 2014)",
  "key": {"[1]": {"system": "GLI1 transcriptional activity", "conditions": "cited from earlier work"}, "C3H10T1/2 [2]": {"system": "C3H10T1/2", "test": "Cytotoxicity test against C3H10T1/2 normal cells", "assay_type": "cell-based", "conditions": "normal cell line", "text": "(§1) […]. […] […]. […] […]."}, "[3]": {"test": "Cytotoxicity test against C3H10T1/2 normal cells", "assay_type": "cell-based", "conditions": "mouse, C3H10T1/2 cells (normal cell line)", "text": "as §1"}, "[4]": {"system": "assay cells (HaCaT cells expressing exogenous GLI1)", "test": "Cytotoxicity against reporter assay cells (cell viability)", "text": "(§2) We evaluated the Hh inhibitory activity of the isolated compounds by using a previously described method. […] In addition we always checked the cytotoxicity of the compounds against the assay cells, because a decrease in the number of living cells also correlates with a reduced luciferase activity. […] Further, we examined the cytotoxicity against cancer cells, human pancreatic (PANC1) and prostate (DU145) cancer cell lines, in which Hh signaling is aberrantly activated (Table 1).\n(§3) The NMR measurements were carried out with JEOL ECP400 and ECP600 spectrometers in deuterated solvents and the residual proton chemical shift was taken as an internal standard. MS data were obtained with a JEOL JMS-T100LP (ESI). IR spectra were measured by using the ATR (attenuated total reflection) method on a Jasco FT-IR 230 spectrophotometer. […] The procedures for the GLI1-mediated transcriptional activity assay, Western blot analysis and cytotoxicity test were as previously described. The GST–GLI1 protein was produced as previously described."}, "[5]": {"system": "GLI1 transcriptional activity", "test": "cells", "assay_type": "cell-based", "conditions": "for IC50: read-out: GLI1 transcriptional inhibition, IC50", "text": "In addition, we evaluated the Hh inhibitory activity by assessing the cytotoxicity against cancer cells and the expression of Hh-related proteins.\nas §2, §3"}, "DU145": {"system": "DU145", "test": "Cytotoxicity test against DU145", "assay_type": "cell-based", "text": "as §1"}, "PANC1 [6]": {"system": "PANC1", "test": "Cytotoxicity test against PANC1", "assay_type": "cell-based", "conditions": "Homo sapiens, PANC-1", "text": "as §1"}, "C3H10T1/2 [7]": {"system": "C3H10T1/2", "conditions": "cited from earlier work; for survival of C3H10T1/2 cells: normal cell line; for IC50: read-out: Cytotoxicity, IC50 C3H10T1/2, C3H10T1/2"}, "PANC1 [8]": {"system": "PANC1", "conditions": "read-out: Cytotoxicity, IC50 PANC1; cited from earlier work"}, "[9]": {"molecular_target": "T1, GLI1–DNA complex (GST–GLI1 171-515aa, GLI1–BS) (Homo sapiens, UniProt P08151)", "T1 construct": "GST–GLI1 (171-515aa); made in house; host or cells: Escherichia coli", "T1 sequence (P08151 171-515)": "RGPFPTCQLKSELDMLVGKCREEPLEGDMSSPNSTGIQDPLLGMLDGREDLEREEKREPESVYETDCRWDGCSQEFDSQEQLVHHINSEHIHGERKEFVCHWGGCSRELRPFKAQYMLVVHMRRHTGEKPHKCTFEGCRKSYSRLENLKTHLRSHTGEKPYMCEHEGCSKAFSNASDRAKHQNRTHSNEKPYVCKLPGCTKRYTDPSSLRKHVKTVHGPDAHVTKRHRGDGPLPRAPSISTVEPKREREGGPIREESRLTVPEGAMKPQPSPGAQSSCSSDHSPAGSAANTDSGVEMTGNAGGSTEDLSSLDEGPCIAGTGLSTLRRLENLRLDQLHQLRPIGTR", "assay_type": "binding", "conditions": "EMSA, 200 μM"}, "PTCH [10]": {"system": "PTCH", "test": "Western blot analysis of PTCH in GLI1-overexpressing HaCaT cells", "assay_type": "cell-based", "conditions": "3.0 μM, HaCaT cells expressing exogenous GLI1, Western blot", "text": "as §1\n(§4) Figure 4 Inhibition of protein expression by compound 1. (A) Western blot analysis of PTCH, BCL-2 protein levels in GLI1-overexpressing HaCaT cells after treatment with 1. (B) Western blot analysis of PTCH, BCL-2 protein levels in DU145 cells after treatment with 1."}, "BCL2 [11]": {"system": "BCL2", "test": "Western blot analysis of BCL2 in DU145 cells", "assay_type": "cell-based, human", "conditions": "3.0 μM, DU145 cancer cells", "text": "as §1, §4"}, "BCL2 [12]": {"system": "BCL2", "test": "Western blot analysis of BCL2 in GLI1-overexpressing HaCaT cells", "assay_type": "cell-based", "conditions": "3.0 μM, HaCaT cells expressing exogenous GLI1, Western blot", "text": "as §1, §4"}, "PTCH [13]": {"system": "PTCH", "test": "Western blot analysis of PTCH in DU145 cells", "assay_type": "cell-based, human", "conditions": "3.0 μM, DU145 cancer cells", "text": "as §1, §4"}, "[14]": {"conditions": "Homo sapiens, DU-145; read-out: Cytotoxicity, IC50 DU145"}, "[15]": {"conditions": "read-out: GLI1 transcriptional inhibition, IC50"}},
  "note": "Where two headings read alike, the source gives them in different places.",
  "data": [
    {"compound": "C=C(C)[C@@H]1CC[C@]2(C(=O)O)CC[C@]3(C)[C@H](CC[C@@H]4[C@@]5(C)[C@H](C=O)[C@@H](O)C(C)(C)[C@@H]5CC[C@]43C)[C@@H]12", "note": "[colubrinic acid, reference compound]", "values": [
      {"measurement": "IC50", "setting": "[1]; read-out: Hh inhibition IC50", "result": 38, "unit": "µM"}
    ]},
    {"compound": "CC12C(=O)CC=CC1=CCC1C2CCC2(O)C(=O)OC3(C)C4CC5(C)C(COC16OC23C5C6=O)C(=O)O4", "note": "(centres unmarked) [isophysalin B (4), isophysalin B]", "values": [
      {"measurement": "survival of C3H10T1/2 cells", "setting": "C3H10T1/2 [2]", "result": "not significantly affected"},
      {"measurement": "IC50", "setting": "[3]", "result": "> 12", "unit": "µM"},
      {"measurement": "cytotoxicity against assay cells", "setting": "[4]", "result": "low cytotoxicity"},
      {"measurement": "IC50", "setting": "[5]", "result": 4.2, "unit": "µM"},
      {"measurement": "IC50", "setting": "DU145; [14]", "result": "> 12", "unit": "µM"},
      {"measurement": "IC50", "setting": "PANC1 [6]", "result": 12, "unit": "µM"}
    ]},
    {"compound": "C[C@]12C(=O)C=CCC1=CC[C@@H]1[C@@H]2CC[C@@]2(O)C(=O)O[C@@]3(C)[C@H]4C[C@]5(C)[C@@H](CO[C@@]16O[C@]23[C@H]5C6=O)C(=O)O4", "note": "[physalin B (6), physalin B]", "values": [
      {"measurement": "survival of C3H10T1/2 cells", "setting": "C3H10T1/2 [7]", "result": "not significantly affected"},
      {"measurement": "IC50", "setting": "C3H10T1/2 [7]", "result": 17, "unit": "µM"},
      {"measurement": "IC50", "setting": "PANC1 [8]", "result": 5.3, "unit": "µM"},
      {"measurement": "IC50", "setting": "[1]; [15]", "result": 0.62, "unit": "µM"}
    ]},
    {"compound": "C=C1C(=O)OC2CC1(C)C1C(=O)C3(O)OC14C(O)(CCC1C3CC=C3CC=CC(=O)C31C)C(=O)OC24C", "note": "(centres unmarked) [physalin B (6]", "values": [
      {"measurement": "IC50", "setting": "[1]; [15]", "result": 0.62, "unit": "µM"}
    ]},
    {"compound": "C[C@@]12C[C@H]3OC(=O)[C@@H]1CO[C@]14O[C@]5([C@H]2C1=O)[C@@](O)(CC[C@H]1[C@H]4C[C@H]2O[C@]24CC=CC(=O)[C@]14C)C(=O)O[C@@]35C", "note": "[physalin F (5), physalin F]", "values": [
      {"measurement": "survival of C3H10T1/2 cells", "setting": "C3H10T1/2 [7]", "result": "not significantly affected"},
      {"measurement": "IC50", "setting": "C3H10T1/2 [7]", "result": 15, "unit": "µM"},
      {"measurement": "IC50", "setting": "PANC1 [8]", "result": 2.7, "unit": "µM"},
      {"measurement": "IC50", "setting": "[1]; [15]", "result": 0.66, "unit": "µM"}
    ]},
    {"compound": "CC12CC3OC(=O)C1COC14OC5(C2C1=O)C(O)(CCC1C4CC2OC24CC=CC(=O)C14C)C(=O)OC35C", "note": "(centres unmarked) [physalin F (5]", "values": [
      {"measurement": "IC50", "setting": "[1]; [15]", "result": 0.66, "unit": "µM"}
    ]},
    {"compound": "C[C@]12C(=O)C=CC=C1[C@@H](O)C[C@@H]1[C@@H]2CC[C@@]2(O)C(=O)O[C@@]3(C)[C@H]4C[C@]5(C)[C@@H](CO[C@@]16O[C@]23[C@H]5C6=O)C(=O)O4", "note": "[physalin G (2), physalin G]", "values": [
      {"measurement": "IC50", "setting": "[5]", "result": 47.1, "unit": "µM"},
      {"measurement": "formation of GLI1–DNA complex", "setting": "[9]", "result": "did not inhibit"},
      {"measurement": "IC50", "setting": "DU145; Homo sapiens, DU-145, read-out: Cytotoxicity, IC50 DU145", "result": "> 12", "unit": "µM"}
    ]},
    {"compound": "CC12C(=O)C=CC=C1C(O)CC1C2CCC2(O)C(=O)OC3(C)C4CC5(C)C(COC16OC23C5C6=O)C(=O)O4", "note": "(centres unmarked) [physalin G (2]", "values": [
      {"measurement": "IC50", "setting": "[5]", "result": 47.1, "unit": "µM"}
    ]},
    {"compound": "CC12CC3OC(=O)C1COC14OC5(C2C1=O)C(O)(CCC1C4CC(O)C2(Cl)CC=CC(=O)C12C)C(=O)OC35C", "note": "(centres unmarked) [physalin H (1), physalin H]", "values": [
      {"measurement": "expression of PTCH", "setting": "PTCH [10]", "result": "inhibited the expression"},
      {"measurement": "survival of C3H10T1/2 cells", "setting": "C3H10T1/2 [2]", "result": "not significantly affected"},
      {"measurement": "IC50", "setting": "[3]", "result": "> 6", "unit": "µM"},
      {"measurement": "expression of BCL2", "setting": "BCL2 [11]", "result": "decreased the expression"},
      {"measurement": "expression of BCL2", "setting": "BCL2 [12]", "result": "inhibited the expression"},
      {"measurement": "IC50", "setting": "DU145; [14]", "result": 6.8, "unit": "µM"},
      {"measurement": "expression of PTCH", "setting": "PTCH [13]", "result": "only slightly affected"},
      {"measurement": "IC50", "setting": "PANC1 [6]", "result": 5.7, "unit": "µM"}
    ]},
    {"compound": "CC12CC3OC(=O)C1COC14OC5(C2C1=O)C(O)(CCC1C4CC(O)C24C=CC(OO2)C(=O)C14C)C(=O)OC35C", "note": "(centres unmarked) [physalin K (3), physalin K]", "values": [
      {"measurement": "Hh inhibition", "setting": "[5]", "result": "did not show Hh inhibition at all"}
    ]},
    {"compound": "COC(=O)[C@]1(C)CCC[C@]2(C)c3cc4occc4c(C)c3C[C@@H](OC(C)=O)[C@@H]12", "note": "[taepeenin D, reference compound]", "values": [
      {"measurement": "IC50", "setting": "[1]; read-out: Hh inhibition IC50", "result": 1.6, "unit": "µM"}
    ]},
    {"compound": "C=CC(C)(O)CC[C@@]1(C)C2=C([C@H](OC(C)=O)[C@H](OC(C)=O)[C@H]1C)C(C)(C)CCC2", "note": "(some centres unmarked) [vitetrifolin D, reference compound]", "values": [
      {"measurement": "IC50", "setting": "[1]; read-out: Hh inhibition IC50", "result": 20.2, "unit": "µM"}
    ]}
  ]
}
